One may read the IC50 as the concentration that gives 50% inhibition.

Each structure is given as a SMILES string.

For 24 molecules, IC50 results are on record in patent publication US20130331378A1, “PYRAZOLOPYRIDINE DERIVATIVE OR PHARMACOLOGICALLY ACCEPTABLE SALT THEREOF” (KISSEI PHARMACEUTICAL CO., LTD., priority 2011, published 2013).

For the assay, the target named is T1, rat EP1 receptor (Rattus norvegicus, UniProt P70597).
T1 construct: expressed in transfected cells
T1 sequence (P70597 1-405): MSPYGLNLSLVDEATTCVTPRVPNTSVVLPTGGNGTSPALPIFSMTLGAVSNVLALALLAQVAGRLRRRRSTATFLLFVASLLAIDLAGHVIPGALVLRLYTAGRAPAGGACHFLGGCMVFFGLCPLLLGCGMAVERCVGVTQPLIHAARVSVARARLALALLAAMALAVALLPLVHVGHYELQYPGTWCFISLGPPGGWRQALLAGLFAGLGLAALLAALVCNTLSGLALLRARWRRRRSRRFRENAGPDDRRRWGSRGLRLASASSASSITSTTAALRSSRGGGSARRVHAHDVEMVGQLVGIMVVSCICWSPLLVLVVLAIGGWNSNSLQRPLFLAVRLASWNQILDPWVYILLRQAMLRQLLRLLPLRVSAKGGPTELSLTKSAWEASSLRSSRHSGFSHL
Put plainly: Test for confirming EP1 receptor antagonistic effect: suppression of prostaglandin E2-induced rise in intracellular calcium concentration. Format: cell-based. As to conditions: rat EP1 receptor-expressing COS-1 cells; prostaglandin E2 10 nM; Fluo 4-AM fluorescent signal; test compound 0.1 nM to 10 μM. On the procedure: (1) Preparation of Rat EP1 Expression Vector
The first PCR was performed with Rat Kidney BD Marathon-Ready cDNA (Nippon Becton Dickinson Co., Ltd.) as a template using a forward primer represented by SEQ ID NO: 1 and a reverse primer represented by SEQ ID NO: 2 and using KOD-Plus-Ver 2.0 (Toyobo Co., Ltd.). The second PCR was further performed in a similar manner with this amplification product as a template using a forward primer represented by SEQ ID NO: 3 and a reverse primer represented by SEQ ID NO: 4. The amplification product obtained by the second PCR was incorporated into a vector (pcDNA3.1 D/V5-His-TOPO (registered trademark), Invitrogen Corporation). This vector with the incorporated amplification product was introduced to E. coli (One Shot TOP10 Competent Cell, Invitrogen Corporation) by a conventional method to perform transformation. This transformed E. coli was cultured for 1 day in an LB agar medium. After the culture, colonies were selected and cultured in an LB liquid medium containing 50 μg/mL of ampicillin. After the culture, the vector was purified using QIAprep Spin Miniprep Kit (Qiagen Corporation). The base sequence (SEQ ID NO: 5) of the inserted site in this vector was compared with the base sequence (Ptger1) of rat EP1 registered under Accession No. NM_013100 in a heretofore known database (NCBI) and consequently was completely identical except for 1 base. Moreover, an amino acid sequence translated from this base sequence was completely identical to the amino acid sequence of the rat EP1 receptor registered under Accession No. NP_037232 in NCBI. Thus, it was confirmed that the cloned gene sequence was the base sequence of the rat EP1 receptor and the obtained amino acid sequence was the rat EP1 receptor. The pcDNA3.1 D/V5-His-TOPO (registered trademark) in which the nucleic acid represented by SEQ ID NO: 5 was inserted was used as a rat EP1 expression vector.
(2) Preparation of Rat EP1 Receptor-Expressing Cell
COS-1 cells (Dainippon Sumitomo Pharma Co., Ltd.) were cultured at 37° C. in an incubator under 5% CO2 gas conditions using a D-MEM liquid medium (containing high glucose and L-glutamine, Invitrogen Corporation) supplemented with a penicillin-streptomycin solution (Invitrogen Corporation, final concentration: 100 U/mL as benzylpenicillin; 100 μg/mL as streptomycin) as antibiotics, MEM non-essential amino acids (Invitrogen Corporation, final concentration: 0.1 mM), and fetal bovine serum (Moregate Biotech, final concentration: 10%), until reaching confluence.
The cells that reached confluence were dissociated with 0.05% trypsin/0.53 mM EDTA.4Na (Invitrogen Corporation) and resuspended in the liquid medium. The resuspended cells were diluted with the liquid medium so that the spread ratio became 1:4 to 1:8, and were cultured.
The cells that reached confluence were dissociated with 0.05% trypsin/0.53 mM EDTA.4Na and resuspended in a D-MEM liquid medium (containing high glucose and L-glutamine, Invitrogen Corporation) supplemented with MEM non-essential amino acids (final concentration: 0.1 mM) and fetal bovine serum (final concentration: 10%). This resuspended cell suspension was prepared with a liquid medium so as to become the number of cells 5×10^4 cells/100 μL of the liquid medium/well in each well of a poly-D-lysine-coated 96-well microplate (BD BioCoat (registered trademark), Nippon Becton Dickinson Co., Ltd.), and this cell preparation was dispensed at 100 μL to each well and seeded. After the seeding, the cells were cultured at 37° C. in an incubator under 5% CO2 gas conditions. The introduction of the rat EP1 expression vector was performed by procedures shown below at the point in time when the cells for introduction of this rat EP1 expression vector adhered (approximately 2 hours after the seeding).
Lipofectamine 2000 (Invitrogen Corporation) was used for the introduction of the rat EP1 expression vector. […]
Regarding `S=c1[nH]c(-c2cccc(Cc3c(-c4ccccc4)nn4cc(Cl)ccc34)n2)no1` [Example 26-1], the IC50 was determined as 70 nM.

Regarding `COc1ccc2c(Cc3cccc(C(=O)O)n3)c(-c3ccccc3)nn2c1` [Example 3-5, 6-[(6-Methoxy-2-phenylpyrazolo[1,5-a]pyridin-3-yl)methyl]pyridine-2-carboxylic acid], the IC50 is 6 nM.

For the molecule `CSc1ccc2c(Cc3cccc(C(=O)O)n3)c(-c3ccccc3)nn2c1` [Example 12-17, 6-[[6-(Methylthio)-2-phenylpyrazolo[1,5-a]pyridin-3-yl]methyl]pyridine-2-carboxylic acid], the IC50 stood at 87 nM.

`COc1ccc2c(Cc3cccc(C(=O)O)c3)c(-c3ccccc3)nn2c1` [Example 3-4, 3-[(6-Methoxy-2-phenylpyrazolo[1,5-a]pyridin-3-yl)methyl]benzoic acid]: the IC50 was 11 nM.

On to `COc1ccc2c(Cc3cccc(C(=O)O)n3)c(C(C)(C)C)nn2c1` [Example 3-15, 6-[(2-tert-Butyl-6-methoxypyrazolo[1,5-a]pyridin-3-yl)methyl]pyridine-2-carboxylic acid], for which the 50% inhibitory concentration (IC50) was determined as 39 nM.

Take `O=C(O)c1cccc(Cc2c(N3CCCCC3)nn3cc(Cl)ccc23)n1` [Example 12-26, 6-[[6-Chloro-2-(piperidin-1-yl)pyrazolo[1,5-a]pyridin-3-yl]methyl]pyridine-2-carboxylic acid]: the IC50 worked out at 79 nM.

In the case of `Clc1ccc2c(Cc3cccc(-c4nnn[nH]4)n3)c(-c3ccccc3)nn2c1` [Example 28-1, 6-Chloro-2-phenyl-3-[[6-(1H-tetrazol-5-yl)pyridin-2-yl]methyl]pyrazolo[1,5-a]pyridine], the IC50 was 2.5 nM.

For the molecule `O=C(O)c1cccc(Cc2c(-c3ccccc3)nn3cc(Cl)ccc23)c1` [Example 3-2, 3-[(6-Chloro-2-phenylpyrazolo[1,5-a]pyridin-3-yl)methyl]benzoic acid], the IC50 turned out to be 29 nM.

In the case of `O=C(O)c1cccc(Cc2c(-c3cccc(F)c3)nn3cc(Cl)ccc23)n1` [Example 12-38, 6-[[6-Chloro-2-(3-fluorophenyl)pyrazolo[1,5-a]pyridin-3-yl]methyl]pyridine-2-carboxylic acid], the IC50 is 39 nM.

As for `C=Cc1ccc2c(Cc3cccc(C(=O)O)n3)c(-c3ccccc3)nn2c1` [Example 3-11, 6-[(2-Phenyl-6-vinylpyrazolo[1,5-a]pyridin-3-yl)methyl]pyridine-2-carboxylic acid], the IC50 came out at 21 nM.

As for `O=C(O)c1csc(Cc2c(-c3ccccc3)nn3cc(Cl)ccc23)n1` [Example 12-7], the IC50 came to 110 nM.

As for `O=C(O)c1cccc(Cc2c(-c3ccccc3)nn3cc(C(F)(F)F)ccc23)n1` [Example 3-22, 6-[[2-Phenyl-6-(trifluoromethyl)pyrazolo[1,5-a]pyridin-3-yl]methyl]pyridine-2-carboxylic acid], the half-maximal inhibitory concentration (IC50) amounted to 19 nM.

Turning to `CC1(c2nn3cc(Cl)ccc3c2Cc2cccc(C(=O)O)n2)CC1` [Example 12-36, 6-[[6-Chloro-2-(1-methylcyclopropyl)pyrazolo[1,5-a]pyridin-3-yl]methyl]pyridine-2-carboxylic acid], the IC50 was determined as 160 nM.

For `Cc1ccc2c(Cc3cccc(C(=O)O)n3)c(-c3ccccc3)nn2c1` [Example 3-21, 6-[(6-Methyl-2-phenylpyrazolo[1,5-a]pyridin-3-yl)methyl]pyridine-2-carboxylic acid], the IC50 was found to be 19 nM.

Consider `CC(C)(C)c1nn2cc(Cl)ccc2c1Cc1cccc(C(=O)O)n1` [Example 12-23, 6-[(2-tert-Butyl-6-chloropyrazolo[1,5-a]pyridin-3-yl)methyl]pyridine-2-carboxylic acid], for which the IC50 worked out at 48 nM.

Consider `COc1ccc2c(Cc3ccc(C(=O)O)o3)c(-c3ccccc3)nn2c1` [Example 3-6, 5-[(6-Methoxy-2-phenylpyrazolo[1,5-a]pyridin-3-yl)methyl]furan-2-carboxylic acid], for which the IC50 came out at 60 nM.

Take `O=C(O)c1cccc(Cc2c(-c3ccccc3)nn3cc(Br)ccc23)n1` [Example 3-14, 6-[(6-Bromo-2-phenylpyrazolo[1,5-a]pyridin-3-yl)methyl]pyridine-2-carboxylic acid]: the IC50 worked out at 11 nM.

Take `O=c1[nH]c(-c2cccc(Cc3c(-c4ccccc4)nn4cc(Cl)ccc34)n2)no1` [Example 25-1]: the IC50 is 46 nM.

Regarding `COc1ccc2c(Cc3cccc(C(=O)O)n3)c(C3CCCC3)nn2c1` [Example 3-18, 6-[(2-Cyclopentyl-6-methoxypyrazolo[1,5-a]pyridin-3-yl)methyl]pyridine-2-carboxylic acid], the IC50 was determined as 170 nM.

Regarding `COc1ccc2c(Cc3cccc(C(=O)O)n3)c(-c3cccc(F)c3)nn2c1` [Example 12-53, 6-[[2-(3-Fluorophenyl)-6-methoxypyrazolo[1,5-a]pyridin-3-yl]methyl]pyridine-2-carboxylic acid], the IC50 came out at 2.9 nM.

As for `COc1ccc2c(Cc3cccc(C(=O)O)n3)c(-c3ccsc3)nn2c1` [Example 3-32, 6-[[6-Methoxy-2-(thiophen-3-yl)pyrazolo[1,5-a]pyridin-3-yl]methyl]pyridine-2-carboxylic acid], the half-maximal inhibitory concentration (IC50) worked out at 43 nM.

`COc1ccc2c(Cc3cccc(C(=O)O)n3)c(-c3ccc(F)cc3)nn2c1` [Example 3-24, 6-[[2-(4-Fluorophenyl)-6-methoxypyrazolo[1,5-a]pyridin-3-yl]methyl]pyridine-2-carboxylic acid]: the IC50 came out at 16 nM.

Consider `CS(=O)(=O)NC(=O)c1cccc(Cc2c(-c3ccccc3)nn3cc(Cl)ccc23)n1` [Example 23-1, 6-[(6-Chloro-2-phenylpyrazolo[1,5-a]pyridin-3-yl)methyl]-N-(methylsulfonyl)pyridine-2-carboxamide], for which the IC50 was found to be 62 nM.

Turning to `COc1ccc2c(Cc3cccc(-c4nnn[nH]4)n3)c(-c3ccccc3)nn2c1` [Example 2-1, 6-Methoxy-2-phenyl-3-[[6-(1H-tetrazol-5-yl)pyridin-2-yl]methyl]pyrazolo[1,5-a]pyridine], the IC50 was 56 nM.
